The values below are quoted from earlier work in publication PMC4153342 (Vaccine, 2014).

The test system of the data set is HLA-A2 on TAP-deficient/HLA-A2+ T2 cells. To be noted: previously reported.
Take AMTKLGFKA [p57]: the “affinity for HLA-A2 in vitro” value is “have affinity for HLA-A2”.
For KASEKIFYV [p41], the “affinity for HLA-A2 in vitro” value is “have affinity for HLA-A2”.
As to MTFGRLQGI [p99], the “affinity for HLA-A2 in vitro” value is given as “have affinity for HLA-A2”.
For RLQGISPKI [p103], the “affinity for HLA-A2 in vitro” value was “have affinity for HLA-A2”.
